Reference: patent publication US20130004936A1, “SUPERCOOLING PROMOTING AGENT” (National University Corporation Hokkaido Universit, priority 2010, published 2013)

Legend:
Assay type in all cases: physicochemical
[1] = Supercooling activity, droplets on cooled copper plate, silver iodide as ice nucleus substance; conditions: for supercooling activity: against an ice nucleus substance AgI, concentration not given; for freezing temperature (INT50): 0.1 mass % substance, 10 mM AgI, cooling 0.2° C./min
Procedure: (§1) In the present invention, a supercooling activity (also referred to as ice nucleus formation inhibitory activity) was measured by the following method. That is, an object to be measured was mixed at […] in a buffer containing an ice nucleus substance to prepare a solution, and many 2-μL liquid droplets of the solution were placed on a copper plate where the temperature could be controlled. The copper plate was cooled at 0.2° C./min, and the number of frozen liquid droplets was visually observed. The temperature at which 50% of the liquid droplets were frozen was defined as a freezing temperature, and a difference between the freezing temperature of the solution including the object to be measured and the ice nucleus substance and the freezing temperature of a solution including only the ice nucleus substance and the buffer (control) (INT50 (° C.)) was defined as a supercooling activity. As the buffer, a 50 mM potassium phosphate buffer (pH 7.0) was used.
In Examples 4 to 8 below, 10 mM silver iodide (AgI) (manufactured by NACALAI TESQUE, INC.), 2 mg/mL dead bacterial cells of an ice nucleation active bacterium Erwinia ananas (manufactured by Wako Pure Chemical Industries, Ltd.), 2 mg/mL dead bacterial cells of an ice nucleation active bacterium Xanthomonas campestris (manufactured by Wako Pure Chemical Industries, Ltd.), and 120 mM phloroglucinol (manufactured by TOKYO CHEMICAL […] CO., LTD.) were used as ice nucleus substances, and ultrapure water obtained by passing water through an ultrapure water device manufactured by Millipore Corporation was used (MilliQ Water). A substance to be measured (1 mg/mL) was mixed in a buffer containing any one of the ice nucleus substances and ultrapure water (MilliQ Water), and the supercooling activities were measured by the above-mentioned method. A difference between the freezing temperature of the solution containing the substance to be measured and the ice nucleus substance and the freezing temperature of the solution including only the ice nucleus substance, and a difference between the freezing temperature of pure water having dissolved therein the substance to be measured and the freezing temperature of only pure water were determined as supercooling activities (ice nucleus formation inhibitory activities) (see FIGS. 8 to 11 and Tables 1 to 4).

[2] = system: dead bacterial cells of an ice nucleation active bacterium (Erwinia ananas); experiment: Supercooling activity (ice nucleus formation inhibitory activity), 2-μL droplets on cooled copper plate, Erwinia ananas as ice nucleus substance; conditions: for freezing temperature (INT50): 0.1 mass % substance, 2 mg/mL dead E. ananas cells, cooling 0.2° C./min, temperature at which 50% of droplets froze; for activity that allows water to be supercooled: 2 mg/mL Erwinia ananas, substance 0.01 to 3 mg/mL (FIG. 6)
Procedure: as §1
The water suspension of the crude extract was centrifuged at 20° C. and 14,000 G, and the supernatant was collected. 300 mL of the supernatant and 600 mL of ethyl acetate were mixed, and the mixture was divided into a water-soluble part and an ethyl acetate-soluble part by a separating funnel, followed by drying. Supercooling activities of the parts were measured by the above-mentioned method. Dead bacterial cells of an ice nucleation active bacterium (Erwinia ananas) (manufactured by Wako Pure Chemical Industries, Ltd.) were used as an ice nucleus substance.
The fractions K to S obtained above were analyzed by high-performance liquid chromatography (column: PC hydrophilic interaction chromatography column (HILIC), solvent: acetonitrile:water=9:1, flow rate: 1 mL/min, detector: UV 280 nm). […] The three substances are known substances, and their structures were confirmed by ^1H-NMR. FIGS. 3 to 5 show the resultant ^1H-NMR charts. FIG. 6 show the supercooling activity of water containing each of the three substances with 2 mg/mL Erwinia ananas serving as an ice nucleus-forming substance, together with control data in the case of containing none of the three substances.
A substance to be measured (1 mg/mL) was mixed in a buffer containing any one of the ice nucleus substances and ultrapure water (MilliQ Water), and the supercooling activities were measured by the above-mentioned method. A difference between the freezing temperature of the solution containing the substance to be measured and the ice nucleus substance and the freezing temperature of the solution including only the ice nucleus substance, and a difference between the freezing temperature of pure water having dissolved therein the substance to be measured and the freezing temperature of only pure water were determined as supercooling activities (ice nucleus formation inhibitory activities) (see FIGS. 8 to 11 and Tables 1 to 4).

[3] = Supercooling activity, droplets on cooled copper plate, phloroglucinol as ice nucleus substance; conditions: 0.1 mass % substance; 120 mM phloroglucinol; cooling 0.2° C./min
Procedure: as §1
(§2) In Examples 4 to 8 below, 10 mM silver iodide (AgI) (manufactured by NACALAI TESQUE, INC.), 2 mg/mL dead bacterial cells of an ice nucleation active bacterium Erwinia ananas (manufactured by Wako Pure Chemical Industries, Ltd.), 2 mg/mL dead bacterial cells of an ice nucleation active bacterium Xanthomonas campestris (manufactured by Wako Pure Chemical Industries, Ltd.), and 120 mM phloroglucinol (manufactured by TOKYO CHEMICAL […] CO., LTD.) were used as ice nucleus substances, and ultrapure water obtained by passing water through an ultrapure water device manufactured by Millipore Corporation was used (MilliQ Water). A substance to be measured (1 mg/mL) was mixed in a buffer containing any one of the ice nucleus substances and ultrapure water (MilliQ Water), and the supercooling activities were measured by the above-mentioned method. […]

[4] = Supercooling activity, droplets on cooled copper plate, ultrapure water without ice nucleus substance; conditions: 0.1 mass % substance; ultrapure water (MilliQ Water); cooling 0.2° C./min
Procedure: as §1, §2

[5] = system: dead bacterial cells of an ice nucleation active bacterium Xanthomonas campestris; experiment: Supercooling activity, droplets on cooled copper plate, Xanthomonas campestris as ice nucleus substance; conditions: 0.1 mass % substance; 2 mg/mL dead X. campestris cells; cooling 0.2° C./min
Procedure: as §1, with “used. […]” for “used.”

O=C(O)/C=C/c1ccc(O)c(O)c1 [CaA, caffeic acid]
supercooling activity [1]: −1.9 °C

O=C(O[C@@H]1Cc2c(O)cc(O)cc2O[C@@H]1c1ccc(O)c(O)c1)c1cc(O)c(O)c(O)c1 [ECG, epicatechin gallate]
freezing temperature (INT50) [2]: −8.4 °C | freezing temperature (INT50) [3]: −9.6 °C | freezing temperature (INT50) [4]: −18.7 °C | freezing temperature (INT50) [5]: −8.7 °C | freezing temperature (INT50) [1]: −7.8 °C

O=C(O)c1cc(O)c(O)c(O)c1 [GA, gallic acid]
supercooling activity [1]: −1.2 °C

O=C(/C=C/c1ccc(O)c(O)c1)O[C@@H]1C[C@](O)(C(=O)O)C[C@@H](O)[C@H]1O [ChA, chlorogenic acid]
supercooling activity [1]: −0.6 °C

2,3,6-tri-O-galloyl-α,β-D-hamamelose
activity that allows water to be supercooled [2]: about 5 °C

O=C(OC[C@H]1O[C@@H](OC(=O)c2cc(O)c(O)c(O)c2)[C@H](OC(=O)c2cc(O)c(O)c(O)c2)[C@@H](O)[C@@H]1O)c1cc(O)c(O)c(O)c1 [1,2,6-tri-O-galloyl-β-D-glucose]
activity that allows water to be supercooled [2]: about 5 °C

O=c1oc2c(O)c(O)cc3c(=O)oc4c(O)c(O)cc1c4c23 [EA, ellagic acid]
supercooling activity [1]: −0.3 °C

Oc1cc(O)c2c(c1)O[C@H](c1cc(O)c(O)c(O)c1)[C@H](O)C2 [EGC, epigallocatechin]
freezing temperature (INT50) [2]: −5.7 °C | freezing temperature (INT50) [3]: −8.8 °C | freezing temperature (INT50) [4]: −15.8 °C | freezing temperature (INT50) [1]: −6.9 °C

COC(=O)c1cc(O)c(O)c(O)c1 [MG, methyl gallate]
supercooling activity [1]: −3.3 °C

O=C(O[C@@H]1Cc2c(O)cc(O)cc2O[C@@H]1c1cc(O)c(O)c(O)c1)c1cc(O)c(O)c(O)c1 [EGCG, epigallocatechin gallate]
freezing temperature (INT50) [2]: −8.3 °C | freezing temperature (INT50) [3]: −8.4 °C | freezing temperature (INT50) [4]: −20.0 °C | freezing temperature (INT50) [5]: −8.9 °C | freezing temperature (INT50) [1]: −6.9 °C

O=C(OC[C@H]1O[C@@H](OC(=O)c2cc(O)c(O)c(O)c2)[C@H](OC(=O)c2cc(O)c(O)c(O)c2)[C@@H](OC(=O)c2cc(O)c(O)c(O)c2)[C@@H]1O)c1cc(O)c(O)c(O)c1 [1,2,3,6-tetra-O-galloyl-β-D-glucose]
activity that allows water to be supercooled [2]: about 5 °C
